Laboratory results from PMC8707461, “In Vitro and In Vivo Inhibition of MATE1 by Tyrosine Kinase Inhibitors” (Pharmaceutics, 2021).
Several values for one entry are separate records, joined by “and”; a condition that tells them apart may be missing. Equal values may be shown once. Read-outs that look alike come from different tables or passages of the source. Each block holds one molecule with its values, some of them ahead of it.

What was measured:
[1] = parameters: method as in PMID 18787054; conditions: cited from earlier work
MATE1 [2] = conditions: cited from earlier work
[3] = system: human OCT2, or MATE1 transporters; conditions: dasatinib 10 µM, oxaliplatin 50 µM
Method: (§1) Uptake experiments in HEK293 cells overexpressing mouse (m) and human (h) OCT2 or MATE1 were performed with radiolabeled tetraethylammonium (TEA) as the model substrate, using standard methods in the presence or absence of TKIs. The cell culture and uptake conditions for cells expressing mMATE1 or hMATE1 were described previously. […] Since the inhibitory potential of various xenobiotics against OCT2 and MATE1 is dependent on preincubation with perpetrator drugs, a 15-min preincubation period with the TKIs was employed unless stated otherwise. All results were normalized to uptake values in cells transfected with an empty vector or DMSO-treated groups.
(§2) MATE1-overexpressed cells were pre-incubated with transport media containing 30 mM ammonium chloride for 20 min at 37 °C following previously published protocol (pH 7.4 for hMATE1 [17, 18, 19] and pH 8.4 for mMATE1 [20, 21]) to ensure interactions can be evaluated between outward-facing MATE1 and substrate uptake before adding inhibitors. Then, preincubation media was removed and cells were incubated with transport media (NH4Cl free) containing radiolabeled compounds. […] The uptake of TEA and metformin was measured by liquid scintillation counting, as described previously. […] After sonication, total platinum levels were determined by flameless atomic absorption spectrometry.

[4] = system: mouse OCT2, or MATE1 transporters; conditions: dasatinib 10 µM, oxaliplatin 50 µM
Method: as §1, §2

MATE1 gene = MATE1 gene expression by RT-PCR in MATE1-overexpressing cells exposed to TKIs; assay type: cell-based, human
Source text: RNA was extracted using the Qiagen kit from treated cells in 12-well plates or kidney tissues obtained from untreated or treated mice. Taqman primers Hs00217320_m1 and Mm00840361_m1 were obtained from Thermo Fisher Scientific (Waltham, MA, USA) and used for the hMATE1 and mMATE1 genes. The primers Hs02786624_g1 and Mm99999915_g1 were used as the house-keeping control genes for hGAPDH and mGAPDH, respectively.

MATE1 [5] = experiment: Plasma N-methylnicotinamide (NMN) as MATE1 biomarker in mice after dasatinib; assay type: in vivo, mouse; conditions: wild-type mice, dasatinib 15 mg/kg oral
MATE1 [6] = molecular target: T1, MATE1 (Homo sapiens, UniProt Q96FL8); experiment: [14C]TEA uptake in HEK293 cells overexpressing human MATE1; conditions: for inhibition of MATE1-mediated uptake of TEA (in words): TKI 10 µM; for inhibition at 10 µM: human
T1 sequence (Q96FL8 1-570): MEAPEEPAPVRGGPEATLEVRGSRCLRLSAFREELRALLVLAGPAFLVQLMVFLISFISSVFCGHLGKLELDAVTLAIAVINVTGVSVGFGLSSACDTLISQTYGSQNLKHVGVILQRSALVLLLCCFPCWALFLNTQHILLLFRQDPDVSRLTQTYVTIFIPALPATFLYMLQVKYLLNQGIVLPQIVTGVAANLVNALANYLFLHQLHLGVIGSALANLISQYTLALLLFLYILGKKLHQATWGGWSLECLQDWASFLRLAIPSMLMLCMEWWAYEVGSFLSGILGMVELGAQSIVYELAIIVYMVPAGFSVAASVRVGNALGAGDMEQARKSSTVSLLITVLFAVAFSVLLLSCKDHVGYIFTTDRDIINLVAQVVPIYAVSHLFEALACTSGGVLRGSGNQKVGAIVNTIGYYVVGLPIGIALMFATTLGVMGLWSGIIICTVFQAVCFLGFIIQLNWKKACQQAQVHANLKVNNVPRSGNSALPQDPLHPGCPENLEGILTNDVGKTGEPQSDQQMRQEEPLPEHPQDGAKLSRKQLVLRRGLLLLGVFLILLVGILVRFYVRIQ
Method: as §1
(§3) MATE1-overexpressed cells were pre-incubated with transport media containing 30 mM ammonium chloride for 20 min at 37 °C following previously published protocol (pH 7.4 for hMATE1 [17, 18, 19] and pH 8.4 for mMATE1 [20, 21]) to ensure interactions can be evaluated between outward-facing MATE1 and substrate uptake before adding inhibitors. Then, preincubation media was removed and cells were incubated with transport media (NH4Cl free) containing radiolabeled compounds. […] The uptake of TEA and metformin was measured by liquid scintillation counting, as described previously. For uptake studies involving platinum drugs, cells were collected with TrypLE, and the pellets were lysed overnight in 0.2% nitric acid. After sonication, total platinum levels were determined by flameless atomic absorption spectrometry.

mouse MATE1 = molecular target: T2, mouse MATE1 (Mus musculus, UniProt Q8K0H1); experiment: cell-based
T2 sequence (Q8K0H1 1-567): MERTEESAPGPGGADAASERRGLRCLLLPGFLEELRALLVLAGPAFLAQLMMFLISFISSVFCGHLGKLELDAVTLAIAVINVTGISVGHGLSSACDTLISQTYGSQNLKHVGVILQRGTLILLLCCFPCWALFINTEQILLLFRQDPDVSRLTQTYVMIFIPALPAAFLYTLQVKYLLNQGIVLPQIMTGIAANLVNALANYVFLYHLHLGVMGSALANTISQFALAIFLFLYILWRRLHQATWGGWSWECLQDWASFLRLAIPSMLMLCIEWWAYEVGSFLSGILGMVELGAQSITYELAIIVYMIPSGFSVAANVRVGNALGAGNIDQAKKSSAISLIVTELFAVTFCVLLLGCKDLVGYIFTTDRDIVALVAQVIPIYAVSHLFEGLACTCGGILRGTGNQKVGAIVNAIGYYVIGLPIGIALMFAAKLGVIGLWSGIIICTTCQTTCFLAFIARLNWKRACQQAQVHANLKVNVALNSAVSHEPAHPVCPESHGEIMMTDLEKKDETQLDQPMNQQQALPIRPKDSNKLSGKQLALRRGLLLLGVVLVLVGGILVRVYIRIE
Method: as §1, §3

[7] = cited from earlier work
[8] = Human plasma pharmacokinetics of total platinum, patient with colorectal cancer; assay type: in vivo; conditions: oxaliplatin 85 mg/m2 i.v. infusion
Method: In order to assess the degree of MATE1 inhibition by dasatinib, analyses of N-methylnicotinamide (see below) were performed in plasma samples collected at serial time points (up to 24 h after the end of infusion). Plasma samples were also subjected to dasatinib analysis by liquid chromatography with tandem mass spectrometric detection (LC-MS/MS) and analyzed for total platinum levels by flameless atomic absorption spectrometry. The study protocol (ClinicalTrial.gov Identifier: NCT04164069) was approved by the institutional review board of the -The Ohio State University Comprehensive Cancer Center (OSU IRB #2019C0141, approval date 01 March 2019), and the patient provided written informed consent prior to enrollment.

[9] = Urinary excretion of oxaliplatin in mice (metabolic cages); assay type: in vivo, mouse; conditions: mice deficient in MATE1 or both OCT2 and MATE1 vs wild-type; oxaliplatin 10 mg/kg i.p.
[10] = Murine plasma pharmacokinetics of total platinum; assay type: in vivo, mouse
Source text: For pharmacokinetic studies, plasma and tissue samples were collected from male wild-type mice (8–12 weeks old), and age-matched MATE1-deficient [MATE1(−/−)] mice, and mice additionally deficient for OCT1 and OCT2 [OCT1/2/MATE1(−/−)], following an established protocol. All animals were backcrossed on an FVB strain, were given a standard diet and water ad libitum, and housed and handled in accordance with the University Laboratory Animal Resources (ULAR) Animal Care and Use Committee at The Ohio State University (2015A00000101-R1). […] Concentrations of total platinum in plasma and tissues were measured by flameless atomic absorption spectrometry, as previously reported, by interpolation of unknown readings on linear calibration curves prepared in drug-free nitric acid (0.2%) using linear-least squares regression analysis.

human OCT2 = molecular target: T3, human OCT2 (Homo sapiens, UniProt O15244); experiment: [14C]TEA uptake in HEK293 cells stably transfected with human OCT2; assay type: cell-based; conditions: TKI 10 µM
T3 construct: host or cells: HEK293 (Flp-In system, pcDNA5/FRT)
T3 sequence (O15244 1-555): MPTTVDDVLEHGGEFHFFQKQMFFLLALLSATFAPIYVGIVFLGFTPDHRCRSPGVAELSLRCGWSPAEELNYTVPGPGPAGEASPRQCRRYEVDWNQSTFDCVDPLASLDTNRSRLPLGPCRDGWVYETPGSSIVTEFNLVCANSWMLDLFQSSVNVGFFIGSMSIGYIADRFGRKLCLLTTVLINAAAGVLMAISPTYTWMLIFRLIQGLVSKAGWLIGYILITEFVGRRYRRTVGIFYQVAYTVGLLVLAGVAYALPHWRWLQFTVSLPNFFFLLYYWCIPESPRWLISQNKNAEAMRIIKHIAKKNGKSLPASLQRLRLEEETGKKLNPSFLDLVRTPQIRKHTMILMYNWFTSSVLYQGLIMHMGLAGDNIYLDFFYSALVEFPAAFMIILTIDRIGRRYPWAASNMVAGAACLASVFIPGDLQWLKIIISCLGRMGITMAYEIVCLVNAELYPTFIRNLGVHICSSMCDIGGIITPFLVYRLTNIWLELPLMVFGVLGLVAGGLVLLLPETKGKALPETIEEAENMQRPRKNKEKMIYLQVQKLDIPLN
Method: as §1, §3

[11] = HEK293 cells overexpressing human MATE1, pH 7.4, probe [14C]TEA (tetraethylammonium), 2 µM
[12] = dasatinib pre-treatment 100 mg p.o.
[13] = OCT1,2/MATE1-/- mice + dasatinib 15 mg/kg p.o. pretreatment, oxaliplatin 10 mg/kg i.p.
[14] = OCT1,2/MATE1-/- mice, cisplatin 15 mg/kg i.p. or oxaliplatin 10 mg/kg i.p.
[15] = wild-type mice + dasatinib 15 mg/kg p.o. pretreatment, oxaliplatin 10 mg/kg i.p.
[16] = wild-type mice, cisplatin 15 mg/kg i.p. or oxaliplatin 10 mg/kg i.p.
[17] = publicly available information, ref FDA/EMA or supplement refs 1-8
[18] = Mouse IC50, HEK293 cells overexpressing mouse MATE1

Compound: Cc1nc(Nc2ncc(C(=O)Nc3c(C)cccc3Cl)s2)cc(N2CCN(CCO)CC2)n1 [Dasatinib]
ability of cells to transport oxaliplatin after dasatinib pre-treatment (in words) [3]: dramatically impaired
ability of cells to transport oxaliplatin after dasatinib pre-treatment (in words) [4]: dramatically impaired
expression of MATE1 (in words) (MATE1 gene): downregulated
suppression of MATE1 gene expression (MATE1 gene): ~ 50%
plasma levels of NMN (in words) (MATE1 [5]): transient, statistically significant increase
inhibition of MATE1-mediated uptake of TEA (in words) (MATE1 [6]): completely inhibited
inhibition at 10 µM (MATE1 [6]; [11]): 95.4%

Compound: C=CC(=O)N1CCC[C@@H](n2nc(-c3ccc(Oc4ccccc4)cc3)c3c(N)ncnc32)C1 [Ibrutinib]
IC50 (mouse MATE1): 51.5 µM
IC50 (MATE1 [6]): 1.03 µM
inhibition at 10 µM (MATE1 [6]; pH 7.4): 91.8%

Compound: O=C1[O][Pt]2([NH][C@@H]3CCCC[C@H]3[NH]2)[O]C1=O [Oxaliplatin]
fecal excretion [7]: about 2 % of the dose
urinary excretion [7]: > 50 % of the dose
AUC [8, 12]: 11600 ng·h/mL
Cmax [8, 12]: 870 ng/mL
AUC ([8]; without dasatinib): 11300 ng·h/mL
Cmax ([8]; without dasatinib): 960 ng/mL
reduction of urinary excretion [9]: about 2 fold
AUC [10, 13]: 7530 ± 900 ng·h/mL
Cmax [10, 13]: 3860 ± 10 ng/mL
AUC [10, 14]: 10500 ± 10 ng·h/mL
Cmax [10, 14]: 3610 ± 180 ng/mL
AUC [10, 15]: 12200 ± 710 ng·h/mL
Cmax [10, 15]: 4800 ± 10 ng/mL
plasma pharmacokinetic profile after dasatinib pretreatment (in words) ([10]; wild-type mice, single dose of dasatinib 15 mg/kg): unchanged
AUC [10, 16]: 10700 ± 1000 ng·h/mL
Cmax [10, 16]: 2760 ± 40 ng/mL

influence on OCT2 function (in words) (human OCT2): no influence
inhibition at 10 µM (MATE1 [6]; [11]): 72.1%
Compound: CNC(=O)c1cc(Oc2ccc(NC(=O)Nc3ccc(Cl)c(C(F)(F)F)c3)c(F)c2)ccn1 [Regorafenib]
IC50 (MATE1 [2]; [17]): < 10 µM

Compound: Cc1cn(-c2cc(NC(=O)c3ccc(C)c(Nc4nccc(-c5cccnc5)n4)c3)cc(C(F)(F)F)c2)cn1 [Nilotinib]
IC50 (mouse MATE1; [18]): 45.4 µM and 45.3 µM
expression of MATE1 (in words) (MATE1 gene): downregulated
inhibition at 10 µM (MATE1 [6]; [11]): 95.7%

Compound: CCN(CC)CCNC(=O)c1c(C)[nH]c(/C=C2\C(=O)Nc3ccc(F)cc32)c1C [Sunitinib]
influence on OCT2 function (in words) (human OCT2): potently inhibiting
inhibition of MATE1-mediated uptake of TEA (in words) (MATE1 [6]): potently inhibiting
inhibition at 10 µM (MATE1 [6]; pH 7.4): 98%

Compound: CNC(=O)c1cc(Oc2ccc(NC(=O)Nc3ccc(Cl)c(C(F)(F)F)c3)cc2)ccn1 [Sorafenib]
influence on OCT2 function (in words) (human OCT2): no influence
inhibition at 10 µM (MATE1 [6]; [11]): 83.8%

IC50 (mouse MATE1; [18]): > 50 µM
Compound: CN/C(=N/CCSCc1nc[nH]c1C)NC#N [cimetidine]

influence on OCT2 function (in words) (human OCT2): potently inhibiting
inhibition of MATE1-mediated uptake of TEA (in words) (MATE1 [6]): potently inhibiting
inhibition at 10 µM (MATE1 [6]; [11]): 99.2%
Compound: COc1cc(Nc2c(C#N)cnc3cc(OCCCN4CCN(C)CC4)c(OC)cc23)c(Cl)cc1Cl [Bosutinib]
IC50 (MATE1 [2]; [17]): < 10 µM
